Measured values reported in patent US20060276416A1, “Methods and compositions for treating flushing and drug induced weight gain” (Sirtris Pharmaceuticals, Inc., priority 2005, published 2006).

Legend:
[1] = system: HeLa S3 cells; experiment: Cellular deacetylase assay (TSA-insensitive FdL deacetylation); format: cell-based, human; details: 500 μM compound, 200 μM FdL, 1 μM TSA, 1 hour
Protocol: FdL (200 μM) is added to growth media and cells incubated for 1-3 hours to allow FdL to enter the cells and the lysine-deacetylated product (deAc-FdL) to accumulate intracellularly. Cells are lysed with detergent in the presence of 1 μM TSA, 1 mM nicotinamide. Addition of the non-cell-permeable Developer (BIOMOL) releases a fluorophor, specifically from deAc-FdL. b, SIRT1 activating polyphenols can stimulate TSA-insensitive, FdL deacetylation by HeLa S3 cells. Cells were grown adherently in DMEM/10% FCS and treated for 1 hour with 200 μM FdL, 1 μM TSA and either vehicle (0.5% final DMSO, Control) or 500 μM of the indicated compound. Intracellular accumulation of deAc-FdL was then determined as described briefly in a. […] Lysates were prepared and analyzed as above. […]
Themed compound libraries (BIOMOL) were used for primary and secondary screening. […] In vitro fluorescence assay results were read in white ½-volume 96-well microplates (Corning Costar 3693) with a CytoFluor™ II fluorescence plate reader (PerSeptive Biosystems, Ex. 360 nm, Em. 460 nm, gain=85). HeLa cells were grown and the cellular deacetylation assays were performed and read, as above, but in full-volume 96-well microplates (Corning Costar 3595). […]

[2] = system: C. elegans; experiment: C. elegans fat accumulation, Nile Red staining; format: in vivo; details: 100 μM
Protocol: Fat accumulation was visualized with Nile Red staining, as described further below and in Ashrafi K, et al. Nature 421:268-27 (2003).
Synchronized starved L1 worms were grown in the presence of Nile Red. Strains were grown on NGM plates at 25° C. for approximately 48 hours until the young adult stage was reached. 20-30 young adult worms were then washed 2× with M9 buffer and transferred to new NGM/Nile red experimental plates that contained either OP50 or HTT5 E. coli carrying the L4440 RNAi control vector.
Young adults were transferred to plates containing the appropriate vector, Nile Red stain and drug then maintained at 25° C.
Nile Red: Nile Red Powder (Sigma #N-3013) was dissolved in acetone at 500 μg/ml, diluted in 1× Phosphate Buffered Saline (PBS) including appropriate drug and applied to surface of Nematode Growth Media (NGM) plates previously seeded with OP50 or RNAi bacteria, at a final concentration of 0.05 μg/ml. Fat content was monitored and recorded by fluorescence microscopy.

[3] = target: T1, recombinant human SIRT1 (Homo sapiens, UniProt Q96EB6); experiment: SIRT1 fluorescent deacetylation assay (p53-382 acetylated peptide); format: biochemical
T1 sequence (Q96EB6 1-747): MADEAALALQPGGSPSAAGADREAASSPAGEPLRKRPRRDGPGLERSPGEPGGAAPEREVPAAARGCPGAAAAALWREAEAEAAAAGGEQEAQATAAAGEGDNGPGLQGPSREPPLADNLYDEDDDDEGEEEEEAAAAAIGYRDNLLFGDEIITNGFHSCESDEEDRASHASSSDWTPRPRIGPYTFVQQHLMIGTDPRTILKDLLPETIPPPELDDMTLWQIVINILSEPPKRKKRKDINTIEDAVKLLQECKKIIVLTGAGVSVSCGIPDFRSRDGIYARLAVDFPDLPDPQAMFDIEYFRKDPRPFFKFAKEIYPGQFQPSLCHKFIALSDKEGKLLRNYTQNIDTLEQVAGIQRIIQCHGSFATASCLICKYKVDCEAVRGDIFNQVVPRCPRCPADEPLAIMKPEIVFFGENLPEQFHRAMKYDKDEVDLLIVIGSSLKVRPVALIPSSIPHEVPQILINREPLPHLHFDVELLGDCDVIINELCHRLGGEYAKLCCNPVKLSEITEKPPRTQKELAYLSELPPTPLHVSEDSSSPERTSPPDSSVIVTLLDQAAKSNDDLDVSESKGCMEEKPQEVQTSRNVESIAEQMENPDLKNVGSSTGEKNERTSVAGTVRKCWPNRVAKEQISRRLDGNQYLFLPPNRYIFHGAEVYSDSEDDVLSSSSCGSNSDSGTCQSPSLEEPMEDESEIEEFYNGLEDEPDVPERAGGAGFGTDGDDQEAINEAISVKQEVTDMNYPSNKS
Protocol: To identify compounds that modulate SIRT1 activity, a number of small molecule libraries were screened using a fluorescent deacetylation assay in 96-well plates^26. The substrate used in the assay was a fluorogenic peptide based on the sequence encompassing the p53-K382 acetylation site, a known target of SIRT1 in vivo^20,21,27. […] The small molecule libraries included analogues of nicotinamide, ε-acetyl lysine, NAD^+, nucleotides, nucleotide analogues and purinergic ligands.
From 0.1 to 1 μg of SIRT1 and 1.5 μg of Sir2 were used per deacetylation assay (in 50 μl total reaction) as previously described^26. SIRT1 assays and certain of those for Sir2 employed the p53-382 acetylated substrate (‘Fluor de Lys-SIRT1’, BIOMOL) rather than FdL.
Themed compound libraries (BIOMOL) were used for primary and secondary screening. Most polyphenol compounds were dissolved at 10 mM in dimethylsulfoxide (DMSO) on the day of the assay. For water soluble compounds and negative controls, 1% v/v DMSO was added to the assay. In vitro fluorescence assay results were read in white ½-volume 96-well microplates (Corning Costar 3693) with a CytoFluor™ II fluorescence plate reader (PerSeptive Biosystems, Ex. 360 nm, Em. 460 nm, gain=85). […] Unless otherwise indicated all initial rate measurements were means of three or more replicates, obtained with single incubation times, at which point 5% or less of the substrate initially present had been deacetylated. Calculation of net fluorescence increases included subtraction of a blank value, which in the case of Sir2 was obtained by omitting the enzyme from the reaction and in the case of SIRT1 by adding an inhibitor (200 μM suramin or 1 mM nicotinamide) to the reaction prior to the acetylated substrate. A number of the polyphenols partially quenched the fluorescence produced in the assay and correction factors were obtained by determining the fluorescence increase due to a 3 μM spike of an FdL deacetylated standard (BIOMOL, catalog number KI-142). All error bars represent the standard error of the mean.
All SIRT1 rate measurements used in the calculation of “Ratio to Control Rate” were obtained with 25 μM NAD^+ and 25 μM p53-382 acetylated peptide substrate were performed as described above and in K. T. Howitz et al. Nature (2003) 425: 191. All ratio data were calculated from experiments in which the total deacetylation in the control reaction was 0.25-1.25 μM peptide or 1-5% of the initial concentration of acetylated peptide.

[4] = system: Human 293; experiment: Survival of 293 cells (Coulter counter); format: cell-based; details: 50 micromolar
Description: The number of live cells each time point was counted using a Coulter counter.

Structure (SMILES) | Effect on the cellular (TSA-insensitive) deacetylation signal [1] | Fat mobilization ([2]; 48 hours) | v1/v2 (rate for pure SIRT1/BML-230 divided by that for pure SIRT1/resveratrol) ([3]; R at 500 μM) | Stimulated SIRT1 activity compared with resveratrol ([3]; all concentrations tested, 25 μM NAD+ and p53-382 peptide, 20 minutes) | Dissociation constant of SIRT1 complex compared with SIRT1/resveratrol ([3]; inferred from two state model) | Toxicity on 293 cells (in words) [4] | Fat staining ([2]; 24 hours, control 1% v/v DMSO)
O=C(/C=C/c1ccc(O)c(O)c1)c1ccc(O)cc1O [butein, 3,4,2′,4′-Tetrahydroxychalcone] | no effect | stimulate fat mobilization | – | – | – | – | –
CSc1ccc(/C=C/c2cc(O)cc(O)c2)cc1 [BML-230, 3,5-dihydroxy-4′-thiomethyl-trans-stilbene] | – | – | ≤ 1.4 | exceeds | lower dissociation constant | The results indicate that thiomethyl (BML-230) was the least toxic on 293 cells. | Significant reduction
